# Reference: patent US8697727B2, “N-substituted-heterocycloalkyloxybenzamide compounds and methods of use” (Rigel Pharmaceuticals, Inc., priority 2006, dated 2014)
# Test system: AMPK
# Assay: AMPK activation, enzyme-linked immunosorbent assay
# Assay type: cell-based
# Summary of the method: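 Each compound's EC50 for AMPK activation was the endpoint. In a cell-based assay, AMPK activity was read out as the relative concentration of phosphorylated acetyl-CoA carboxylase, a product of AMPK, measured by enzyme-linked immunosorbent assay. Values fell into the ranges less than 1 μM, 1-10 μM, 10-20 μM, 20-50 μM, 50-100 μM, and >100 μM.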
row,Structure (SMILES),EC50 [µM]
1,"O=C(NC1CCN(Cc2ccccc2)CC1)c1ccc(OC2CCN(Cc3ccc(Cl)cc3)CC2)c(Cl)c1 [Compound 65, N-(1-benzylpiperidin-4-yl)-3-chloro-4-(1-(4-chlorobenzyl)piperidin-4-yloxy)benzamide]",< 1
2,"O=C(NC1CCN(Cc2ccccc2)CC1)c1ccc(OC2CCN(Cc3ccc(F)c(F)c3)CC2)c(F)c1 [Compound 69, N-(1-benzylpiperidin-4-yl)-4-(1-(3,4-difluorobenzyl)piperidin-4-yloxy)-3-fluorobenzamide]",< 1
3,"N#Cc1ccc(CN2CCC(Oc3ccc(C(=O)NC4CCN(Cc5ccncc5)CC4)cc3)CC2)cc1 [Compound 83, 4-(1-(4-cyanobenzyl)piperidin-4-yloxy)-N-(1-(pyridin-4-ylmethyl)piperidin-4-yl)benzamide]",< 1
4,"N#Cc1ccc(N2CCC(Oc3ccc(C(=O)NC4CCN(Cc5ccc(Cl)cc5)CC4)cc3F)CC2)cc1 [Compound 81, N-(1-(4-chlorobenzyl)piperidin-4-yl)-4-(1-(4-cyanophenyl)piperidin-4-yloxy)-3-fluorobenzamide]",< 1
5,"O=C(NC1CCN(Cc2ccccc2)CC1)c1ccc(OC2CCN(Cc3ccc(C(F)(F)F)cc3)CC2)c(Cl)c1 [Compound 56, N-(1-benzylpiperidin-4-yl)-3-chloro-4-(1-(4-(trifluoromethyl)benzyl)piperidin-4-yloxy)benzamide]",< 1
6,"O=C(NC1CCN(Cc2ccccc2)CC1)c1ccc(OC2CCN(Cc3ccco3)CC2)cc1 [Compound 3, N-(1-benzylpiperidin-4-yl)-4-(1-(furan-2-ylmethyl)piperidin-4-yloxy)benzamide]",1 to 10
7,"O=C(NC1CCN(Cc2ccccc2)CC1)c1ccc(OC2CCN(c3ccc(C(F)(F)F)cc3)CC2)c(F)c1 [Compound 23, N-(1-benzylpiperidin-4-yl)-3-fluoro-4-(1-(4-(trifluoromethyl)phenyl)piperidin-4-yloxy)benzamide]",< 1
8,"O=C(NC1CCN(Cc2cccnc2)CC1)c1ccc(OC2CCN(c3ccc(C(F)(F)F)cc3)CC2)c(F)c1 [Compound 29, 3-fluoro-N-(1-(pyridin-3-ylmethyl)piperidin-4-yl)-4-(1-(4-(trifluoromethyl)phenyl)piperidin-4-yloxy)benzamide]",< 1
9,"O=C(NC1CCN(Cc2ccccc2)CC1)c1ccc(OC2CCN(Cc3ccc(F)cc3)CC2)c(Cl)c1 [Compound 19, N-(1-benzylpiperidin-4-yl)-3-chloro-4-(1-(4-fluorobenzyl)piperidin-4-yloxy)benzamide]",< 1
10,"CC(C)(C)OC(=O)N1CCC(Oc2ccc(C(=O)NC3CCN(Cc4ccccc4)CC3)cc2Cl)CC1 [Compound 90, tert-butyl 4-(4-(1-benzylpiperidin-4-ylcarbamoyl)-2-chlorophenoxy)piperidine-1-carboxylate]",1 to 10
11,"N#Cc1ccc(CN2CCC(Oc3ccc(C(=O)NC4CCN(Cc5ccccc5)CC4)c(Cl)c3)CC2)cc1 [Compound 51, N-(1-benzylpiperidin-4-yl)-2-chloro-4-(1-(4-cyanobenzyl)piperidin-4-yloxy)benzamide]",< 1
12,"O=C(NC1CCN(Cc2ccccc2)CC1)c1ccc(OC2CCN(Cc3ccc(F)cc3)CC2)c(F)c1 [Compound 61, N-(1-benzylpiperidin-4-yl)-3-fluoro-4-(1-(4-fluorobenzyl)piperidin-4-yloxy)benzamide]",< 1
13,"Cn1cncc1CN1CCC(Oc2ccc(C(=O)NC3CCN(Cc4ccccc4)CC3)cc2)CC1 [Compound 4, N-(1-benzylpiperidin-4-yl)-4-(1-((l-methyl-1H-imidazol-5-yl)methyl)piperidin-4-yloxy)benzamide]",> 100
14,"N#Cc1ccc(CN2CCC(Oc3c(Cl)cc(C(=O)NC4CCN(Cc5ccccc5)CC4)cc3Cl)CC2)cc1 [Compound 77, N-(1-benzylpiperidin-4-yl)-3,5-dichloro-4-(1-(4-cyanobenzyl)piperidin-4-yloxy)benzamide]",< 1
15,"COc1cc(C(=O)NC2CCN(Cc3ccccc3)CC2)ccc1OC1CCN(S(C)(=O)=O)CC1 [Compound 9, N-(1-benzylpiperidin-4-yl)-3-methoxy-4-(1-(methylsulfonyl)piperidin-4-yloxy)benzamide]",20 to 50
16,"O=C(NC1CCN(Cc2ccccc2)CC1)c1ccc(OC2CCN(Cc3ccc(Cl)c(Cl)c3)CC2)c(Cl)c1 [Compound 84, N-(1-benzylpiperidin-4-yl)-3-chloro-4-(1-(3,4-dichlorobenzyl)piperidin-4-yloxy)benzamide]",< 1
17,"O=C(NC1CCN(Cc2ccccc2)CC1)c1ccc(OC2CCN(Cc3ccc(OC(F)(F)F)cc3)CC2)c(Cl)c1 [Compound 54, N-(1-benzylpiperidin-4-yl)-3-chloro-4-(1-(4-(trifluoromethoxy)benzyl)piperidin-4-yloxy)benzamide]",< 1
18,"CC(C)(C)OC(=O)N1CCC(Oc2ccc(C(=O)NC3CCN(Cc4ccccc4)CC3)cc2F)CC1 [Compound 92, tert-butyl 4-(4-(1-benzylpiperidin-4-ylcarbamoyl)-2-fluorophenoxy)piperidine-1-carboxylate]",1 to 10

row,Structure (SMILES),EC50 [µM]
1,"N#Cc1ccc(CN2CCC(Oc3cccc(C(=O)NC4CCN(Cc5ccccc5)CC4)c3)CC2)cc1 [Compound 50, N-(1-benzylpiperidin-4-yl)-3-(1-(4-cyanobenzyl)piperidin-4-yloxy)benzamide]",1 to 10
2,"CC(C)(C)OC(=O)N1CCC(NC(=O)c2ccc(OC3CCN(c4ccc(C(F)(F)F)cc4)CC3)c(F)c2)CC1 [Compound 26, tert-butyl 4-(3-fluoro-4-(1-(4-(trifluoromethyl)phenyl)piperidin-4-yloxy)benzamido)piperidine-1-carboxylate]",< 1
3,"CC(C)(C)C(=O)N1CCC(NC(=O)c2ccc(OC3CCN(c4ccc(C(F)(F)F)cc4)CC3)c(F)c2)CC1 [Compound 30, 3-fluoro-N-(1-pivaloylpiperidin-4-yl)-4-(1-(4-(trifluoromethyl)phenyl)piperidin-4-yloxy)benzamide]",< 1
4,"O=C(NC1CCN(Cc2ccncc2)CC1)c1cccc(OC2CCN(c3ccc(C(F)(F)F)cc3)CC2)c1 [Compound 87, N-(1-(pyridin-4-ylmethyl)piperidin-4-yl)-3-(1-(4-(trifluoromethyl)phenyl)piperidin-4-yloxy)benzamide]",< 1
5,"O=C(NC1CCN(Cc2ccc(F)cc2)CC1)c1ccc(OC2CCN(Cc3ccc(Cl)cc3)CC2)c(Cl)c1 [Compound 66, 3-chloro-4-(1-(4-chlorobenzyl)piperidin-4-yloxy)-N-(1-(4-fluorobenzyl)piperidin-4-yl)benzamide]",< 1
6,"N#Cc1ccc(CN2CCC(Oc3ccc(C(=O)NC4CCN(Cc5ccccc5)CC4)cc3Cl)CC2)cc1 [Compound 67, N-(1-benzylpiperidin-4-yl)-3-chloro-4-(1-(4-cyanobenzyl)piperidin-4-yloxy)benzamide]",< 1
7,"COc1cc(C(=O)NC2CCN(Cc3ccccc3)CC2)ccc1OC1CCN(c2ccco2)CC1 [Compound 12, N-(1-benzylpiperidin-4-yl)-3-methoxy-4-(1-(furan-2-yl)piperidin-4-yloxy)benzamide]",1 to 10
8,"COC(=O)c1ccc(CN2CCC(NC(=O)c3ccc(OC4CCN(c5ccc(C(F)(F)F)cc5)CC4)c(F)c3)CC2)cc1 [Compound 33, methyl 4-((4-(3-fluoro-4-(1-(4-(trifluoromethyl)phenyl)piperidin-4-yloxy)benzamido)piperidin-1-yl)methyl)benzoate]",< 1
9,"O=C(NC1CCN(Cc2ccccc2)CC1)c1ccc(OC2CCN(Cc3ccc(Cl)c(Cl)c3)CC2)c(F)c1 [Compound 82, N-(1-benzylpiperidin-4-yl)-4-(1-(3,4-dichlorobenzyl)piperidin-4-yloxy)-3-fluorobenzamide]",< 1
10,"N#Cc1ccc(N2CCC(Oc3ccc(C(=O)NC4CCN(Cc5ccccc5)CC4)c(Cl)c3)CC2)cc1 [Compound 49, N-(1-benzylpiperidin-4-yl)-2-chloro-4-(1-(4-cyanophenyl)piperidin-4-yloxy)benzamide]",< 1
11,"CC(C)(C)OC(=O)NCCCNC(=O)c1ccc(OC2CCN(Cc3ccccc3)CC2)c(Cl)c1 [Compound 102, tert-butyl 3-(4-(1-benzylpiperidin-4-yloxy)-3-chlorobenzamido)propylcarbamate]",10 to 20
12,"CN1CCC(NC(=O)c2ccc(OC3CCN(Cc4ccc(C(F)(F)F)cc4)CC3)c(Cl)c2)CC1 [Compound 58, 3-chloro-N-(1-methylpiperidin-4-yl)-4-(1-(4-(trifluoromethyl)benzyl)piperidin-4-yloxy)benzamide]",1 to 10
13,"N#Cc1ccc(CN2CCC(Oc3ccc(C(=O)NC4CCN(Cc5ccc(Cl)cc5)CC4)cc3F)CC2)cc1 [Compound 70, N-(1-(4-chlorobenzyl)piperidin-4-yl)-4-(1-(4-cyanobenzyl)piperidin-4-yloxy)-3-fluorobenzamide]",< 1
14,"O=C(NC1CCN(Cc2ccccc2)CC1)c1ccc(OC2CCN(C(=O)c3ccc(C(F)(F)F)cc3)CC2)c(Cl)c1 [Compound 18, N-(1-benzylpiperidin-4-yl)-3-chloro-4-(1-(4-(trifluoromethyl)benzoyl)piperidin-4-yloxy)benzamide]",< 1
15,"CC(C)(C)c1ccc(CN2CCC(Oc3ccc(C(=O)NC4CCN(Cc5ccccc5)CC4)cc3F)CC2)cc1 [Compound 20, N-(1-benzylpiperidin-4-yl)-3-fluoro-4-(1-(4-tert-butylbenzyl)piperidin-4-yloxy)benzamide]",< 1
16,"O=C(NC1CCN(c2ccccc2)CC1)c1ccc(OC2CCN(c3ccc(C(F)(F)F)cc3)CC2)c(F)c1 [Compound 25, 3-fluoro-N-(1-phenylpiperidin-4-yl)-4-(1-(4-(trifluoromethyl)phenyl)piperidin-4-yloxy)benzamide]",> 100
17,"N#Cc1ccc(CN2CCC(Oc3ccc(C(=O)NC4CCNCC4)cc3)CC2)cc1 [Compound 79, 4-(1-(4-cyanobenzyl)piperidin-4-yloxy)-N-(piperidin-4-yl)benzamide]",> 100
18,"COc1ccc(CN2CCC(Oc3ccc(C(=O)NCCCN4CCOCC4)cc3Cl)CC2)cc1 [Compound 101, 3-chloro-4-(1-(4-methoxybenzyl)piperidin-4-yloxy)-N-(3-morpholinopropyl)benzamide]",10 to 20
